{"source": "paper PMC8151276", "about": "“An Integrated Approach toward NanoBRET Tracers for Analysis of GPCR Ligand Engagement” (Molecules, 2021)", "key": {"[1]": {"target": "T1, FPR3 (Homo sapiens, UniProt P25089)", "T1 construct": "purchased Promega (in-house HiBiT-GPCR construct library, NanoBRET)", "T1 sequence (P25089 1-353)": "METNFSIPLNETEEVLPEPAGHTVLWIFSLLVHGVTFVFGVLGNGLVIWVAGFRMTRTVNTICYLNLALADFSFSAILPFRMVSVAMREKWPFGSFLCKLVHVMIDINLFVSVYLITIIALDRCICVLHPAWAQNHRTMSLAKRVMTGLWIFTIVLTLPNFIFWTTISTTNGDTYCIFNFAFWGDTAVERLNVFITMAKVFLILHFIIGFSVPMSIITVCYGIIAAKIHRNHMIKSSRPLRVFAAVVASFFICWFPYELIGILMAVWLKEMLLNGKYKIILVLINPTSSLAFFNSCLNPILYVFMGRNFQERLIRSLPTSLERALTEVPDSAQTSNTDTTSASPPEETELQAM", "experiment": "NanoBRET screen HiBiT-FPR3 in HEK293", "type": "binding", "method": "(§1) Each tracer candidate was screened across the entire library of HiBiT-GPCR constructs using NanoBRET as the detection modality. As depicted in Figure 4A, the specificity of interactions was evaluated through decrease in BRET due to competitive displacement of a bound tracer by excess parental compound. Each tracer was analyzed for binding to each HiBiT-GPCR fusion in the absence and in the presence of competing parental compound. Briefly, HEK293 cells were transfected with HiBiT-GPCR constructs diluted into promoterless DNA to reduce expression and maximize translocation to the cell surface. Each tracer candidate was then screened at concentrations of 1 μM and 0.1 μM across cells expressing these fusions. Cells were treated for 1.5 h with tracer either alone or in the presence of 20 μM competing parental compound (i.e., control). BRET was measured upon addition of purified LgBiT and subsequent complementation with HiBiT genetically fused to a GPCR. The specificity of interactions was assessed through a decrease in BRET signal due to competitive displacement of the bound tracer. To further gauge the robustness of these interactions, the fold response over the control (i.e., BRETtracer/BRETcontrol) was calculated. We chose a 1.5-fold response, which translates to ≥7-fold signal over noise as the minimal threshold required to score an interaction as positive. […]. Below we highlight the screening results obtained for our exemplary fluorescent tracers based on Clozapine, Amitriptyline and AZD1283.\n(§2) HiBiT-GPCR DNA constructs were diluted in 10 mM Tris pH 8 to a final concentration of 0.01 μg/μL, arrayed in 96-well plates and stored at −20 °C. For transfection, HEK293 cells were suspended in Opti-MEM (without phenol red) supplemented with 2% fetal bovine serum (Seradigm) and 100 units/mL penicillin–streptomycin (Gibco) at a final concentration of 220,000 cells/mL and dispensed into white 96-well plates at 90 μL/well. Subsequent transfections and screens were carried using an Agilent Bravo Automated Liquid Handling Platform. First, the 96-well HiBiT DNA arrays were diluted 25-fold in Opti-MEM (without serum or phenol red) to a final concentration of 0.0004 μg/μL and 20 μL of the diluted DNAs were transferred into new 96-well plates. Next, promoterless carrier DNA (1 μg/μL) was diluted 25-fold (0.04 μg/μL) and then dispensed into the diluted arrays at 20 μL/well. Following brief mixing, Viafect transfection reagent (Promega) diluted 16-fold into Opti-MEM was dispensed into the plates at 40 μL/well. After mixing by pipetting, plates were incubated for 10 min on the pipetting station deck. The DNA-transfection reagent complexes were then added to plates containing cells. To facilitate the screen, 10 μL of DNA-transfection reagent complexes were added in duplicates to the top 4 and bottom 4 rows, resulting in two identical 48-well arrays per plate. Plates with transfected cells were incubated for 18–20 h at 37 °C/5% CO2. A screen of each tracer across the entire library using two different concentrations requires duplicate plates of transfected cells. Depending on the number of tracers being screened, transfections can be scaled up using the same ratios. The next day, for each tracer, four 20× screening solutions in tracer dilution buffer (Promega) were prepared: two duplicates at final concentration of 20 μM and two duplicates at a final concentration of 2 μM. A competing unmodified compound was added to one of each duplicate at a final concentration of 400 μM. The four resulting solutions were diluted 4-fold in Opti-MEM without serum or phenol red to generate 5× solutions (5 µM and 0.5 µM tracer +/− 100 μM competing compound). To screen the library, a BioTek MultiFlo FX liquid dispenser was used to dispense 22.5 µL of tracer solution to the top 4 rows and 22.5 µL tracer + competing compound solution to the 4 bottom rows. Plates were briefly mixed on an orbital shaker and incubated for 1.5 h at room temperature. […]"}, "[2]": {"target": "T2, GHSR (Homo sapiens, UniProt Q92847)", "T2 construct": "purchased Promega (in-house HiBiT-GPCR construct library, NanoBRET)", "T2 sequence (Q92847 whole entry)": "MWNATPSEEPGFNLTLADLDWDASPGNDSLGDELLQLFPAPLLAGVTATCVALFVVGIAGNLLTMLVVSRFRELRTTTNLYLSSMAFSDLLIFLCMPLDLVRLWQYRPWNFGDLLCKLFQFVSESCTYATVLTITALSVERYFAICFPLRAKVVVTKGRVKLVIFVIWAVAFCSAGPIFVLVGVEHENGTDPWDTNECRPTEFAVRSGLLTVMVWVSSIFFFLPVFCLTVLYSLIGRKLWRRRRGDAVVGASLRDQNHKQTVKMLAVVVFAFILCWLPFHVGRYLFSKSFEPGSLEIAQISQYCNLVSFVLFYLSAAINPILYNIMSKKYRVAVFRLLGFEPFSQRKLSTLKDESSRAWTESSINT", "experiment": "NanoBRET screen HiBiT-GHSR in HEK293", "type": "binding", "method": "as §1, §2"}}, "data": [{"smiles": "COc1ccc2c(n1)c(CCNC(C)=O)cn2CCNC(=O)CCc1ccc2n1[B-](F)(F)[N+]1=C(c3ccc[nH]3)C=CC1=C2", "note": "[Azamelatonin-1-NB590]", "values": [{"measurement": "NanoBRET Fold Response", "setting": "[1]; 0.1μM tracer", "value": 0.85}, {"measurement": "NanoBRET Fold Response", "setting": "[1]; 1μM tracer", "value": 1.06}, {"measurement": "NanoBRET Fold Response", "setting": "[2]; 0.1μM tracer", "value": 0.93}, {"measurement": "NanoBRET Fold Response", "setting": "[2]; 1μM tracer", "value": 1.03}]}]}
